From patent publication US20020115122A1, “Method and apparatus for automated assessment of the immunoregulatory status of the mononuclear leukocyte immune system” (priority 1998, published 2002)

Tests used:
[1] = test system: peripheral blood mononuclear cells from normal donors; experiment: Antigenic determinant and IL-2 receptor expression on PHA stimulated mononuclear cells (flow cytofluorometry); type: cell-based, human; conditions: for IL2R+ percentage positive / Leu 2a+ percentage positive / Leu 3a+ percentage positive / Leu 4+ percentage positive: N = 9, ± standard error; for ratio of Activated Leu-3a+: Activated Leu-2a+ cells: at 18 hours in culture with PHA
Procedure: The sample of isolated cells is cultured with a standard stimulus for a period of time sufficient to allow a measurable amount of activation antigen expression, as influenced by mononuclear cell subclass interaction, to develop. In this particular embodiment, the isolated cells at a concentration of 1 million cells per milliliter are cultured with PHA at a concentration of 37.5 micrograms per milliliter, serving as a standard stimulus, for 18 hours. RPMI 1640 with fetal calf serum and glutamine serve as a culture media. The culture time is determined for each particular standard stimulus using samples from normal subjects, culturing portions of each sample for different lengths of time and determining the amount of activation antigen expression for each culture time. A measurable amount of IL-2 receptor expression is observed about 18 hours after initiating the culture with PHA. The 18 hour culture period facilitates the use of this invention as a clinical assay.
After culturing, the cells are washed to remove the standard stimulus and then aliquots of cells are simultaneously incubated with two monoclonal antibodies, each directly conjugated to different fluorometrically distinguishable fluorophores. The first fluorophore-conjugated monoclonal antibody binds to a select mononuclear cell subclass antigenic determinant and the second fluorometrically distinguishable fluorophore-conjugated monoclonal antibody binds to a select cell surface activation antigen. After incubation, the cells are washed to remove excess antibody and, in this particular embodiment, fixed with 1% paraformaldehyde to halt any further cellular activity.
This analysis is correlated with the stimulation index as measured by a 72 hour PHA culture with tritiated thymidine uptake. Peripheral blood mononuclear cells from normal donors were isolated by density gradient centrifugation, cultured with PHA, incubated with monoclonal antibodies to select mononuclear cell subclass antigenic determinants and to IL-2 receptors and four parameter data generated and analyzed similar as described in “Detailed Description”. Monoclonal antibodies used included FITC-conjugated antibody for the antigenic determinants Leu-4, Leu-3a or Leu-2a, and PE-conjugated monoclonal antibody for IL-2 receptor. Four parameter data was collected on cells using an EPICS-V flow cytofluorometer (Coulter Corporation, Hialeah, Fla.) configured as described in “Detailed Description” with the following modification: the argon laser was used at 500 milliwatts. Forward and orthogonal light scatter parameters were analyzed to determine if the cell was within an area of interest which substantially included lymphocytes, lymphoblasts and monocytes. Green and red fluorescence data analysis was performed for such cells. The percentage of antigenic determinant and/or IL-2 receptor positive mononuclear cells, i.e., Leu-4+, Leu-3a+, Leu-2a+, IL2R+, leu-4+IL2R+, Leu-3a+IL2R+and Leu-2a+IL2R+, was determined as per the methods described herein. The results were not corrected for non-specific binding.
First, mononuclear cell subclass antigenic determinant and activation antigen analysis of PHA stimulated mononuclear cells was conducted using aliquots incubated with only one monoclonal antibody.
Analysis of the PEA stimulated mononuclear cells was conducted using aliquots incubated with a FITC-conjugated monoclonal antibody to detect antigenic determinants and anti-IL2R-PE.

[2] = test system: peripheral blood mononuclear cells from normal donors; experiment: Stimulation index by tritiated thymidine uptake in PHA culture; type: cell-based, human; conditions: 72 hours in culture with PHA
Procedure: This analysis is correlated with the stimulation index as measured by a 72 hour PHA culture with tritiated thymidine uptake. Peripheral blood mononuclear cells from normal donors were isolated by density gradient centrifugation, cultured with PHA, incubated with monoclonal antibodies to select mononuclear cell subclass antigenic determinants and to IL-2 receptors and four parameter data generated and analyzed similar as described in “Detailed Description”. Monoclonal antibodies used included FITC-conjugated antibody for the antigenic determinants Leu-4, Leu-3a or Leu-2a, and PE-conjugated monoclonal antibody for IL-2 receptor. Four parameter data was collected on cells using an EPICS-V flow cytofluorometer (Coulter Corporation, Hialeah, Fla.) configured as described in “Detailed Description” with the following modification: the argon laser was used at 500 milliwatts. Forward and orthogonal light scatter parameters were analyzed to determine if the cell was within an area of interest which substantially included lymphocytes, lymphoblasts and monocytes. Green and red fluorescence data analysis was performed for such cells. The percentage of antigenic determinant and/or IL-2 receptor positive mononuclear cells, i.e., Leu-4+, Leu-3a+, Leu-2a+, IL2R+, leu-4+IL2R+, Leu-3a+IL2R+and Leu-2a+IL2R+, was determined as per the methods described herein. […]

[3] = 18 hours in culture with PHA, normal donors
[4] = 24 hours in culture with PHA, normal donors
[5] = 48 hours in culture with PHA, normal donors
[6] = Subject D, 18 hours in culture with PHA
[7] = Subject D, 24 hours in culture with PHA
[8] = Subject D, 48 hours in culture with PHA
[9] = Subject N, 18 hours in culture with PHA
[10] = Subject N, 48 hours in culture with PHA

**Q.** How did the “IL2R+ percentage positive” value ([1]; 18 hours in culture with PHA) turn out when phytohemagglutinin [PHA] was run?
**A.** 61 ± 1.9 percentage

**Q.** What about the “Leu 2a+ percentage positive” value ([1]; 18 hours in culture with PHA) of the same substance?
**A.** 18 ± 1.0 percentage

**Q.** What about the “Leu 3a+ percentage positive” value ([1]; 18 hours in culture with PHA) of the same substance?
**A.** 54 ± 1.7 percentage

**Q.** What about the “Leu 4+ percentage positive” value ([1]; 18 hours in culture with PHA) of the same substance?
**A.** 79 ± 2.4 percentage

**Q.** What about the “Activated Leu-2a+” value [1, 3] of the same substance?
**A.** 25 ± 6.4 Percentage

**Q.** And the “Activated Leu-3a+” value [1, 3]?
**A.** 49 ± 8.9 Percentage

**Q.** And the “Activated Leu-4+” value [1, 3]?
**A.** 49 ± 6.1 Percentage

**Q.** What about the “IL2R+ percentage positive” value ([1]; 24 hours in culture with PHA) of the same substance?
**A.** 71 ± 1.9 percentage

**Q.** And the “Leu 2a+ percentage positive” value ([1]; 24 hours in culture with PHA)?
**A.** 18 ± 0.7 percentage

**Q.** And the “Leu 3a+ percentage positive” value ([1]; 24 hours in culture with PHA)?
**A.** 54 ± 1.3 percentage

**Q.** And the “Leu 4+ percentage positive” value ([1]; 24 hours in culture with PHA)?
**A.** 77 ± 1.9 percentage

**Q.** And the “Activated Leu-2a+” value [1, 4]?
**A.** 32 ± 4.5 Percentage

**Q.** What about the “Activated Leu-3a+” value [1, 4] of the same substance?
**A.** 62 ± 8.5 Percentage

**Q.** And the “Activated Leu-4+” value [1, 4]?
**A.** 62 ± 3.7 Percentage

**Q.** What about the “IL2R+ percentage positive” value ([1]; 48 hours in culture with PHA) of the same substance?
**A.** 80 ± 1.5 percentage

**Q.** What about the “Leu 2a+ percentage positive” value ([1]; 48 hours in culture with PHA) of the same substance?
**A.** 19 ± 2.0 percentage

**Q.** What about the “Leu 3a+ percentage positive” value ([1]; 48 hours in culture with PHA) of the same substance?
**A.** 53 ± 2.8 percentage

**Q.** And the “Leu 4+ percentage positive” value ([1]; 48 hours in culture with PHA)?
**A.** 81 ± 2.2 percentage

**Q.** What about the “Activated Leu-2a+” value [1, 5] of the same substance?
**A.** 55 ± 8.0 Percentage

**Q.** And the “Activated Leu-3a+” value [1, 5]?
**A.** 70 ± 9.5 Percentage

**Q.** And the “Activated Leu-4+” value [1, 5]?
**A.** 72 ± 5.5 Percentage

**Q.** What about the “time after initiating the culture at which a measurable amount of IL-2 receptor expression is observed” value ([1]; PHA 37.5 micrograms per milliliter, 1 million cells per milliliter) of the same substance?
**A.** about 18 hours

**Q.** What about the “Activated Leu-2a+” value [1, 6] of the same substance?
**A.** 32 Percentage

**Q.** And the “Activated Leu-3a+” value [1, 6]?
**A.** 74 Percentage

**Q.** And the “Activated Leu-4+” value [1, 6]?
**A.** 68 Percentage

**Q.** And the “Activated Leu-2a+” value [1, 7]?
**A.** 32 Percentage

**Q.** What about the “Activated Leu-3a+” value [1, 7] of the same substance?
**A.** 79 Percentage

**Q.** And the “Activated Leu-4+” value [1, 7]?
**A.** 75 Percentage

**Q.** And the “Activated Leu-2a+” value [1, 8]?
**A.** 76 Percentage

**Q.** And the “Activated Leu-3a+” value [1, 8]?
**A.** 92 Percentage

**Q.** And the “Activated Leu-4+” value [1, 8]?
**A.** 84 Percentage

**Q.** What about the “ratio of Activated Leu-3a+: Activated Leu-2a+ cells” value (“ratio of Activated Leu-3a+” below) ([1]; Subject D) of the same substance?
**A.** 2.31

**Q.** What about the “Activated Leu-2a+” value [1, 9] of the same substance?
**A.** 30 Percentage

**Q.** And the “Activated Leu-3a+” value [1, 9]?
**A.** 31 Percentage

**Q.** And the “Activated Leu-4+” value [1, 9]?
**A.** 32 Percentage

**Q.** And the “Activated Leu-4+” value ([1]; Subject N, 24 hours in culture with PHA)?
**A.** 59 Percentage

**Q.** What about the “Activated Leu-2a+” value [1, 10] of the same substance?
**A.** 71 Percentage

**Q.** What about the “Activated Leu-3a+” value [1, 10] of the same substance?
**A.** 44 Percentage

**Q.** And the “ratio of Activated Leu-3a+” value ([1]; Subject N)?
**A.** 1.03

**Q.** What about the “ratio of Activated Leu-3a+” value ([1]; Subject N, listed as PRA) of the same substance?
**A.** approximately 1.0

**Q.** What about the “subclass preference of activation” value ([1]; mononuclear cells which are Leu-3a+ versus Leu-2a+) of the same substance?
**A.** preferentially activates helper/inducer T-cells

**Q.** What about the “SI at 72” value ([2]; Subject D) of the same substance?
**A.** 535

**Q.** And the “SI at 72” value ([2]; Subject N)?
**A.** 8
